# According to patent publication US8192962B2, “Processes for detecting toxic substances” (Daikin Industries, Ltd., priority 2001, dated 2012):
# Test system: Mitochondria-located protein genes
# Assay: DNA chip mRNA expression in yeast, mitochondria-located protein genes (Table 2)
# Type: cell-based, Saccharomyces cerevisiae S288C
# Conditions: cells incubated two hours with the chemical substance
# Outline: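 S. cerevisiae S288C grown at 25° C in YPD were exposed in log phase for two hours to one toxic chemical at a growth-inhibiting, non-lethal concentration; untreated cells served as control. Poly(A) mRNA was reverse-transcribed with Cy3/Cy5-dUTP and hybridized to a whole-genome yeast DNA chip at 65° C for over 12 hours; values are fluorescence ratios versus untreated.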
smiles,measurement,setting,value
"Oc1cc(Cl)c(Cl)cc1Cl [(6), 2,4,5-trichlorophenol]",The level of expressed mRNA in the presence of chemical substance/The level of expressed mRNA in the absence of chemical substance,yeast gene YAL039C,0.8
same,The level of expressed mRNA in the presence of chemical substance/The level of expressed mRNA in the absence of chemical substance,yeast gene YBL022C,1.2
same,The level of expressed mRNA in the presence of chemical substance/The level of expressed mRNA in the absence of chemical substance,yeast gene YBL030C,1.1
same,The level of expressed mRNA in the presence of chemical substance/The level of expressed mRNA in the absence of chemical substance,yeast gene YBL038W,0.7
same,The level of expressed mRNA in the presence of chemical substance/The level of expressed mRNA in the absence of chemical substance,yeast gene YBL099W,0.9
same,The level of expressed mRNA in the presence of chemical substance/The level of expressed mRNA in the absence of chemical substance,yeast gene YBR003W,1.2
same,The level of expressed mRNA in the presence of chemical substance/The level of expressed mRNA in the absence of chemical substance,yeast gene YBR044C,1.0
same,The level of expressed mRNA in the presence of chemical substance/The level of expressed mRNA in the absence of chemical substance,yeast gene YBR091C,0.7
same,The level of expressed mRNA in the presence of chemical substance/The level of expressed mRNA in the absence of chemical substance,yeast gene YBR122C,1.1
same,The level of expressed mRNA in the presence of chemical substance/The level of expressed mRNA in the absence of chemical substance,yeast gene YBR185C,1.2
same,The level of expressed mRNA in the presence of chemical substance/The level of expressed mRNA in the absence of chemical substance,yeast gene YBR221C,1.7
same,The level of expressed mRNA in the presence of chemical substance/The level of expressed mRNA in the absence of chemical substance,yeast gene YBR251W,2.0
same,The level of expressed mRNA in the presence of chemical substance/The level of expressed mRNA in the absence of chemical substance,yeast gene YBR282W,1.4
same,The level of expressed mRNA in the presence of chemical substance/The level of expressed mRNA in the absence of chemical substance,yeast gene YCL057W,1.8
same,The level of expressed mRNA in the presence of chemical substance/The level of expressed mRNA in the absence of chemical substance,yeast gene YCR046C,0.8
same,The level of expressed mRNA in the presence of chemical substance/The level of expressed mRNA in the absence of chemical substance,yeast gene YCR083W,2.4
same,The level of expressed mRNA in the presence of chemical substance/The level of expressed mRNA in the absence of chemical substance,yeast gene YDL067C,0.9
same,The level of expressed mRNA in the presence of chemical substance/The level of expressed mRNA in the absence of chemical substance,yeast gene YDL181W,1.2
same,The level of expressed mRNA in the presence of chemical substance/The level of expressed mRNA in the absence of chemical substance,yeast gene YDL198C,0.8
same,The level of expressed mRNA in the presence of chemical substance/The level of expressed mRNA in the absence of chemical substance,yeast gene YDR079W,1.7
same,The level of expressed mRNA in the presence of chemical substance/The level of expressed mRNA in the absence of chemical substance,yeast gene YDR178W,2.1
same,The level of expressed mRNA in the presence of chemical substance/The level of expressed mRNA in the absence of chemical substance,yeast gene YDR231C,2.2
same,The level of expressed mRNA in the presence of chemical substance/The level of expressed mRNA in the absence of chemical substance,yeast gene YDR258C,2.4
same,The level of expressed mRNA in the presence of chemical substance/The level of expressed mRNA in the absence of chemical substance,yeast gene YDR298C,1.2
same,The level of expressed mRNA in the presence of chemical substance/The level of expressed mRNA in the absence of chemical substance,yeast gene YDR347W,1.2
same,The level of expressed mRNA in the presence of chemical substance/The level of expressed mRNA in the absence of chemical substance,yeast gene YDR377W,1.3
same,The level of expressed mRNA in the presence of chemical substance/The level of expressed mRNA in the absence of chemical substance,yeast gene YDR529C,0.8
same,The level of expressed mRNA in the presence of chemical substance/The level of expressed mRNA in the absence of chemical substance,yeast gene YEL024W,1.1
same,The level of expressed mRNA in the presence of chemical substance/The level of expressed mRNA in the absence of chemical substance,yeast gene YEL039C,1.5
same,The level of expressed mRNA in the presence of chemical substance/The level of expressed mRNA in the absence of chemical substance,yeast gene YER178W,2.5
same,The level of expressed mRNA in the presence of chemical substance/The level of expressed mRNA in the absence of chemical substance,yeast gene YFL016C,1.3
same,The level of expressed mRNA in the presence of chemical substance/The level of expressed mRNA in the absence of chemical substance,yeast gene YGL018C,0.4
same,The level of expressed mRNA in the presence of chemical substance/The level of expressed mRNA in the absence of chemical substance,yeast gene YGL187C,1.1
same,The level of expressed mRNA in the presence of chemical substance/The level of expressed mRNA in the absence of chemical substance,yeast gene YGL191W,1.6
same,The level of expressed mRNA in the presence of chemical substance/The level of expressed mRNA in the absence of chemical substance,yeast gene YGR008C,2.9
same,The level of expressed mRNA in the presence of chemical substance/The level of expressed mRNA in the absence of chemical substance,yeast gene YGR028W,1.5
same,The level of expressed mRNA in the presence of chemical substance/The level of expressed mRNA in the absence of chemical substance,yeast gene YGR062C,0.9
same,The level of expressed mRNA in the presence of chemical substance/The level of expressed mRNA in the absence of chemical substance,yeast gene YGR076C,1.2
same,The level of expressed mRNA in the presence of chemical substance/The level of expressed mRNA in the absence of chemical substance,yeast gene YGR082W,1.1
same,The level of expressed mRNA in the presence of chemical substance/The level of expressed mRNA in the absence of chemical substance,yeast gene YGR174C,1.4
same,The level of expressed mRNA in the presence of chemical substance/The level of expressed mRNA in the absence of chemical substance,yeast gene YGR244C,2.6
same,The level of expressed mRNA in the presence of chemical substance/The level of expressed mRNA in the absence of chemical substance,yeast gene YHR008C,1.0
same,The level of expressed mRNA in the presence of chemical substance/The level of expressed mRNA in the absence of chemical substance,yeast gene YIL155C,1.4
same,The level of expressed mRNA in the presence of chemical substance/The level of expressed mRNA in the absence of chemical substance,yeast gene YJL096W,1.0
same,The level of expressed mRNA in the presence of chemical substance/The level of expressed mRNA in the absence of chemical substance,yeast gene YJL102W,1.6
same,The level of expressed mRNA in the presence of chemical substance/The level of expressed mRNA in the absence of chemical substance,yeast gene YJL133W,0.5
same,The level of expressed mRNA in the presence of chemical substance/The level of expressed mRNA in the absence of chemical substance,yeast gene YJL166W,0.7
same,The level of expressed mRNA in the presence of chemical substance/The level of expressed mRNA in the absence of chemical substance,yeast gene YJL180C,1.3
same,The level of expressed mRNA in the presence of chemical substance/The level of expressed mRNA in the absence of chemical substance,yeast gene YJR045C,1.2
same,The level of expressed mRNA in the presence of chemical substance/The level of expressed mRNA in the absence of chemical substance,yeast gene YJR077C,0.9
